According to US20090111828A1, “L-ALANINE DERIVATIVES” (ASTRAZENECA AB, priority 2005, published 2009):
pIC50: −log10 of the molar value.

Columns and labels:
α5β1 integrin [1] = target: T1, α5β1 integrin (Homo sapiens, UniProt P05556+P08648); test: In vitro cell adhesion assay: α5β1 integrin mediated adhesion of K562 cells to fibronectin fragment Fn9-10; type: cell-based; set-up: α5β1 integrin mediated adhesion of K562 cells; host or cells: K562 human erythroleukaemia cells; settings: K562 cells on Fn9-10 coated plates; 0.2 mM MnCl; read-out: b) Cell Adhesion Assay
T1 sequence (P08648 42-894 limits assumed): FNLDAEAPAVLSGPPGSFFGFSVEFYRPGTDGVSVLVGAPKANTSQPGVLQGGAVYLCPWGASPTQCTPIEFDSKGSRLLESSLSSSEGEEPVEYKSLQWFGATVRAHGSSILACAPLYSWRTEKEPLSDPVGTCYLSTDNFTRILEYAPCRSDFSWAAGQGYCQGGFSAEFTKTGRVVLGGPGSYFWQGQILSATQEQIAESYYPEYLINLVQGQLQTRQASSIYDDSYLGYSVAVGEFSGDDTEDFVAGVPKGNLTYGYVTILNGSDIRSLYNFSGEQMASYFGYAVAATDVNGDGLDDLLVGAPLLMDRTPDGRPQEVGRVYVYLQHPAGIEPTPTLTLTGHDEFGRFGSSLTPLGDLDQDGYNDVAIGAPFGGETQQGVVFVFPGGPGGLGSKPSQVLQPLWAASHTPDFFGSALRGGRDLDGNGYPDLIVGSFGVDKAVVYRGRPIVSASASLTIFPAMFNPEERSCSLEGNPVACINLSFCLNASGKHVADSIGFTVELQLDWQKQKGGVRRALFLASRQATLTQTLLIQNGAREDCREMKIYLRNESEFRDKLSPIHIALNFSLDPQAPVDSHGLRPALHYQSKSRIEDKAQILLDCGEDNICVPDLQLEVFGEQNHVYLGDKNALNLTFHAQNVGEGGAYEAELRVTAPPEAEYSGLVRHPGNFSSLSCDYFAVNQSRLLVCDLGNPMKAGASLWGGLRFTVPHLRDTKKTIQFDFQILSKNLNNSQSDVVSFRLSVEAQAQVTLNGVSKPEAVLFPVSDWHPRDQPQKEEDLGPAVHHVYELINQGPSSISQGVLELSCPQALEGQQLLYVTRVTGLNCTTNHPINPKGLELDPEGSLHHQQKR
T1 sequence (P08648 895-1049 partner limits assumed): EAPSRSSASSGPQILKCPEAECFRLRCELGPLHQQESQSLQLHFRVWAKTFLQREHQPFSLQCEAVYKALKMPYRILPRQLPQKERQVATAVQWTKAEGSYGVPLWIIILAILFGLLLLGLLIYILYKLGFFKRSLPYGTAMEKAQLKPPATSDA
T1 sequence (P05556 21-798): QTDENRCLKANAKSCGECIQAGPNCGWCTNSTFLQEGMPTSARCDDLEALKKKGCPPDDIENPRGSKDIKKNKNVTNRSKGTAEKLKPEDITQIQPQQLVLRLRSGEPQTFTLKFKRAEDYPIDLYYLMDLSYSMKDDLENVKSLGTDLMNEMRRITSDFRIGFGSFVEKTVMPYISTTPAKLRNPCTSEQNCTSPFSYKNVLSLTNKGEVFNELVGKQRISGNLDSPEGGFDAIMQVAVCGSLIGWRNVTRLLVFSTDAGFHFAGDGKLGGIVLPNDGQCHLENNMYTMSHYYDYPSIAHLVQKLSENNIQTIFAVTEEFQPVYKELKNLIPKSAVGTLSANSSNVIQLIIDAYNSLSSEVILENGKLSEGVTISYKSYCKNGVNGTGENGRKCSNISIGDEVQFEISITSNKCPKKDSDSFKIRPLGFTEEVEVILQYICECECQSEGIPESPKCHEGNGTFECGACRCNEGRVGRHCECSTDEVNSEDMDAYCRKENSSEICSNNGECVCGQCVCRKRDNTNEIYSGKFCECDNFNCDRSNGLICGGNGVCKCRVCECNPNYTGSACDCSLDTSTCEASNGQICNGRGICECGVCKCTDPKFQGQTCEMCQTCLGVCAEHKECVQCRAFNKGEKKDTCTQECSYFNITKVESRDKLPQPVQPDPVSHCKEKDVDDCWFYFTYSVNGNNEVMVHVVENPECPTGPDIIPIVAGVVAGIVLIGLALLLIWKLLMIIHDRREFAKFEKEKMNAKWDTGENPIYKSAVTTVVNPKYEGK
From the text: The assay determined the ability of compounds to inhibit the α5β1 integrin mediated adhesion of K562 cells to the ligand, a fragment of human fibronectin. The human K562 erythroleukaemia cell line (LGC Promochem, Teddington, Middlesex, UK, Catalogue No. CCL-243) was routinely maintained in RPMI 1640 medium (Sigma-Aldrich Company Ltd, Gillingham, Dorset SP8 4XT, Catalogue No. R0883) containing 10% heat-inactivated foetal calf serum (PAA lab GmbH, Pasching, Austria Catalogue No. PAA-A15-043) and 1% glutamax-1 (Invitrogen Ltd. Paisley, UK Catalogue No. 35050-038) at 37° C. with 5% CO2 at densities between 1×10^5 and 1×10^6 cells/ml.
A DNA fragment encoding the domains 9-10 (amino-acids 1325-1509) of human fibronectin (Swiss-Prot Acession No. P02751) was isolated from cDNA libraries using standard molecular biology and PCR cloning techniques. The cDNA fragment was sub-cloned into a pT7#3.3 expression vector containing a GST-epitope tag (developed at AstraZeneca; Bagnall et al., Protein Expression and Purification, 2003, 27: 1-11) and the fragment termed Fn9-10. Following expression in E. coli, the expressed protein was purified using the GST-tag using standard purification techniques.
For adhesion assay, a 96-well flat bottomed plate (Greiner Bio one ltd., Gloucester GL10 3SX Catalogue No. 655101) was coated overnight at 4° C. with 100 μl of 20 μg/ml Fn9-10 ligand in Dulbecco's PBS (Gibco#14190-94). The plate was then washed twice with 200 μl of PBS and blocked with 100 μl of 3% BSA (SigmaA7888) in PBS for 1 hour at 37° C. The plates were then washed again 3 times with 200 μl of PBS and left empty.
Test compounds were prepared as 10 mM stock solutions in DMSO (Sigma-Aldrich Company Ltd, Gillingham, Dorset SP8 4XT Catalogue No. 154938) and serially diluted with HBSS (Hanks Buffered Salt solution (Gibco Catalogue No. 14170-088)/2% DMSO to give a range of test concentrations at twice required final concentration. Aliquots (50 μl) of each compound dilution were placed into each well of the Fn9-10 coated plates. Each plate also contained control wells: maximum adhesion signal was created using wells containing 50 μl HBSS/2% DMSO and minimum signal corresponding to no adhesion was created using wells containing 50 μl HBSS/2% DMSO/20 mM EDTA (Sigma Catalogue No. E7889).
The K562 cells were cultured to ˜1×10^6 cells/ml and each culture suspension pooled. Cells were centrifuged at 1200 rpm for 2 mins and the pellets washed with HBSS followed by HBSS/50 mM HEPES (Sigma Catalogue No. H0887). Cell pellets were pooled and resuspended in HBSS/0.4 mM manganese chloride/50 mM HEPES (MnCl; Sigma Catalogue No. M1787) to give a final concentration of 4×10^6 cells/ml.
The assay was initiated by the addition of 50 μl of cell suspension into each coated well (200,000 cells/well), thus resulting in final desired compound concentration and a final MnCl concentration of 0.2 mM. The plates were incubated for 45 minutes at 37° C. 5% CO2. After this time, the solution was flicked off as waste and the remaining cell layer carefully washed twice with 200 μl of PBS and then fixed with 200 μl of 100% ethanol for 30 minutes.
After fixation, the ethanol was flicked off to waste and 100 μl of 0.1% Crystal violet stain was added to each well and incubated at ambient temperature for 15 minutes. Excess stain was removed by rinsing ˜3 times under cold slow running water. The plates were blotted over tissue then solubilised by adding 50 μl of 1% Triton X100 (Sigma Catalogue No. T9284) and shaking at 500 rpm for 30 mins on plate shaker. Finally, 100 μl of deionised water was added to each well and the absorbance was determined at 590 nm on a spectrophotometer. The minimum value was subtracted from all values and the absorbance signal was plotted against compound concentration to generate IC50 data.

α5β1 integrin [2] = target: T1, α5β1 integrin; test: In vitro binding assay: inhibition of binding of α5β1 integrin to fibronectin fragment Fn9-10 (Origen electrochemiluminescence); settings: human a5b1 purified from placenta; biotinylated Fn9-10 ligand
Procedure: The assay determined the ability of compounds to inhibit binding of a5 μl integrin to a cognate ligand, a fragment of human fibronectin. The assay used Origen technology (IGEN International) to measure the compound activity. Briefly, (α5β1 integrin was coated onto epoxy-paramagnetic beads (Dynal Biotech UK, Bromborough, Wirral, CH62 3QL, UK, Catalogue No 143.02) and biotinylated-fibronectin ligand was coupled to strepatividin labelled BV-Tag-NHS-Ester (BioVeris Corporation, Witney, Oxfordshire, OX28 4GE, UK, Catalogue No JSF396). The ruthenium-labelled BV-Tag emits a electrochemiluminescence signal upon stimulation which is detected by the Origen reader. Thus, interaction of integrin and ligand causes association of bead and tag and the resulting electrochemiluminescence signal reflects the level of integrin interaction with fibronectin.
12 μg of human a5 μl purified from placenta (Chemicon, Chandlers Ford, Hampshire, SO53 4NF, UK, Catalogue No CC1055-K) was coated onto surface-activated 3 mg of epoxy-paramagnetic beads in PBS and 1M ammonium sulfate following manufacturers instructions at 4° C. for 24 hours. Coated beads were then washed into Assay Buffer (25 mM Hepes, 150 mM NaCl, 1 mM MgCl, 1 mM MnCl, 0.1% Tween, pH7.4) to give a final concentration of 20 μg of α5β1/ml. Immediately prior to the assay, the beads were further diluted ×40 fold in Assay Buffer to give a concentration of 0.5 μg α5β1/ml.
A DNA fragment encoding the domains 9-10 (amino-acids 1325-1509) of human fibronectin (Swiss-Prot Acession No. P02751) was isolated from cDNA libraries using standard molecular biology and PCR cloning techniques. The cDNA fragment was sub-cloned into a pT73.3 expression vector containing a GST-epitope tag (developed at AstraZeneca; Bagnall et al., Protein Expression and Purification, 2003, 27: 1-11). Following expression in E. coli, the expressed protein, termed Fn9-10, was purified using the GST-tag using standard purification techniques. The recombinant Fn9-10 was subsequently biotinylated using a EZ-link Sulfo-NHS-LC-Biotinylation kit (Perbio Science UK Ltd., Cramlington, Northumberland, NE23 1WA, UK, Catalogue No. 21335) and made to give a final concentration of approximately 1 mg/ml. BV-Tag-NHS-Ester was labelled with streptavidin by incubation at room temperature following manufacturers instructions and buffer-exchanged into PBS to give a concentration of 0.5 mg/ml. […]
For the assay, […] of a5b1-bead suspension and 40 μl of the Fn9-10/BV-Tag preincubated solution were added to each well containing 20 μl of compound or control solution. Assay plates were then incubated at room temperature for a minimum of 6 hours before being analysed on the Origen plate reader. […]

Row | pIC50 (α5β1 integrin [1]) | pIC50 (α5β1 integrin [2]) | SMILES
1 | 5.15 | 4.86 | CCCS(=O)(=O)N1CC=C(c2ccc(C[C@H](NC(=O)c3c(Cl)cccc3Cl)C(=O)O)nc2)CC1
2 | ≤ 4.00 | – | CC(=O)NCC(=O)N1CC=C(c2ccc(C[C@H](NC(=O)c3c(Cl)cccc3Cl)C(=O)O)nc2)CC1 [3-[1′-(N-acetylglycyl)-1′,2′,3′,6′-tetrahydro-3,4′-bipyridin-6-yl]-N-(2,6-dichlorobenzoyl)-L-alanine]
3 | ≤ 4.00 | – | O=C(N[C@@H](Cc1ccc(N2CCN(S(=O)(=O)c3ccccc3)CC2)cn1)C(=O)O)c1c(Cl)cccc1Cl [N-(2,6-dichlorobenzoyl)-3-{5-[4-(phenylsulfonyl)piperazin-1-yl]pyridin-2-yl}-L-alanine]
4 | 4.88 | 5.22 | O=C(N[C@@H](Cc1ccc(C2=CCN(Cc3ccc(F)cc3)CC2)cn1)C(=O)O)c1c(Cl)cccc1Cl
5 | 4.15 | 4.61 | CS(=O)(=O)N1CC=C(c2ccc(C[C@H](NC(=O)c3c(Cl)cccc3Cl)C(=O)O)nc2)CC1
6 | 4.32 | 5.14 | O=C(N[C@@H](Cc1ccc(C2=CCN(C(=O)c3cccc(F)c3)CC2)cn1)C(=O)O)c1c(Cl)cccc1Cl
